These results are taken from patent US12233177B2, “Method for external sterilization of drug delivery device” (AMGEN INC., priority 2019, dated 2025).

The subject of the assay is Geobacillus stearothermophilus. The assay is described as follows: Lethality study of NO2 external sterilization on spiked pre-filled syringes. Format: cell-based. How it is done: At least some of the backstops illustrated in the figures were tested in a lethality study. For example, pre-filled syringes were “spiked” with between 1×10^6 and 6×10^6 CFU (e.g., between 1,000,000 and 6,000,000 CFU) of Geobacillus stearothermophilus before sterilization cycles. As a more specific example, the backstop and barrel portions of the prefilled syringes were spiked with the 1-6×10^6 CFU of Geobacillus stearothermophilus. As used herein, the term “CFU” refers to “Colony-Forming Unit”, which is a unit used to estimate the number of viable bacteria or fungal cells in a sample (where “viable” is the ability to multiply via binary fission under controlled conditions). Geobacillus stearothermophilus (previously Bacillus stearothermophilus) is a rod-shaped, gram-positive bacterium and a member of the division Firmicutes. The bacterium is a thermophile and is widely distributed in soil, hot springs, ocean sediment, and is a potential cause of spoilage in food products. The spiked pre-filled syringes were then sterilized using various sterilization parameters to measure the lethality of the sterilization process to evaluate the Sterility Assurance Level (SAL). The pre-filled syringes were spiked with biological indicators or direct inoculation, as is discussed in more detail below.
For each recipe number, five samples (or at least 5 test locations on one or more samples) were tested. […] For example, the target lethality for this test was a Sterility Assurance Level (SAL) of […]. In other words, the target lethality for this test was 6 logs reduction in the number of bacteria present (before sterilization vs. after sterilization). As a more specific example, for Recipe Number 1, one of the five samples tested reached this target lethality for the backstop area (Col. “Spiked Backstop”, row corresponding with Recipe Number 1), but all five of the samples tested reached this target lethality for the barrel area (Col. “Spiked Barrel”, row corresponding with Recipe Number 1). It should be noted that the spiked backstop test results for Recipe Nos. 1-4 (utilizing the backstop 20 shown in FIGS. 2A-2H) were tested via direct inoculation whereas the spiked backstop test results for Recipe Nos. 5-14 (utilizing alternative backstop 120) were tested via biological indicators. It also should be noted that “-” symbols indicate that no data is reported for those parameters/samples. The testing method variance aside, the samples tested utilizing backstops with protrusions achieved target lethality at a much higher rate than the samples utilizing the backstop without protrusions. As discussed above, the ridges minimize and/or prevent occluded spaces and instead permit the sterilization agent to completely or substantially reach various components of the pre-filled syringe, particularly the backstop and flange areas.

Regarding `[O]N=O` [NO2, Nitrogen Dioxide], the “Spiked Barrel: samples out of 5 reaching target lethality (6 logs reduction)” value by setting is: (Recipe 1: 100 Torr, NO2 10 mg/L, 75% RH, dwell 10 min, 2 pulses, 24 aerations, PFS with backstop 20) 5/5; (Recipe 2: 300 Torr, NO2 10 mg/L, 75% RH, dwell 10 min, 2 pulses, 35 aerations, PFS with backstop 20) 5/5; (Recipe 3: 100 Torr, NO2 20 mg/L, 80% RH, dwell 20 min, 4 pulses, 24 aerations, PFS with backstop 20) 5/5; (Recipe 4: 20 Torr, NO2 10 mg/L, 80% RH, dwell 10 min, 4 pulses, 35 aerations, PFS with backstop 20) 5/5; (Recipe 5: 20 Torr, NO2 10 mg/L, 75% RH, dwell 10 min, 8 pulses, 28 aerations, PFS with alternative backstops) 5/5; (Recipe 10: 20 Torr, NO2 10 mg/L, 80% RH, dwell 10 min, 1 pulse, 24 aerations, PFS with alternative backstops) 5/5. For the same molecule, the “Spiked Barrel: samples out of 5 reaching target lethality (6 logs reduction)” value is on record as 4/5 (Recipe 11: 20 Torr, NO2 5 mg/L, 80% RH, dwell 10 min, 1 pulse, 24 aerations, PFS with alternative backstops); 5/5 (Recipe 12: 20 Torr, NO2 5 mg/L, 80% RH, dwell 10 min, 2 pulses, 24 aerations, PFS with alternative backstops); 5/5 (Recipe 13: 20 Torr, NO2 5 mg/L, 80% RH, dwell 5 min, 2 pulses, 24 aerations, PFS with alternative backstops); 5/5 (Recipe 15: 500 Torr, NO2 5 mg/L, 80% RH, dwell 5 min, 2 pulses, 70 aerations, PFS with alternative backstops). For the same molecule, the “Spiked Backstop: samples out of 5 reaching target lethality (6 logs reduction)” value (“Spiked Backstop … (6 logs reduction)” below) runs as follows: (Recipe 1: 100 Torr, NO2 10 mg/L, 75% RH, dwell 10 min, 2 pulses, 24 aerations, backstop 20, direct inoculation) 1/5; (Recipe 2: 300 Torr, NO2 10 mg/L, 75% RH, dwell 10 min, 2 pulses, 35 aerations, backstop 20, direct inoculation) 0/5; (Recipe 3: 100 Torr, NO2 20 mg/L, 80% RH, dwell 20 min, 4 pulses, 24 aerations, backstop 20, direct inoculation) 0/5; (Recipe 4: 20 Torr, NO2 10 mg/L, 80% RH, dwell 10 min, 4 pulses, 35 aerations, backstop 20, direct inoculation) 2/5; (Recipe 5: 20 Torr, NO2 10 mg/L, 75% RH, dwell 10 min, 8 pulses, 28 aerations, alternative backstops, biological indicators) 5/5; (Recipe 6: 20 Torr, NO2 20 mg/L, 80% RH, dwell 20 min, 4 pulses, 24 aerations, alternative backstops, biological indicators) 5/5. The “Spiked Backstop … (6 logs reduction)” value is, setting by setting: (Recipe 7: 20 Torr, NO2 10 mg/L, 80% RH, dwell 20 min, 4 pulses, 24 aerations, alternative backstops, biological indicators) 5/5; (Recipe 8: 20 Torr, NO2 10 mg/L, 80% RH, dwell 10 min, 4 pulses, 24 aerations, alternative backstops, biological indicators) 5/5; (Recipe 9: 20 Torr, NO2 10 mg/L, 80% RH, dwell 10 min, 2 pulses, 24 aerations, alternative backstops, biological indicators) 5/5; (Recipe 10: 20 Torr, NO2 10 mg/L, 80% RH, dwell 10 min, 1 pulse, 24 aerations, alternative backstops, biological indicators) 5/5; (Recipe 11: 20 Torr, NO2 5 mg/L, 80% RH, dwell 10 min, 1 pulse, 24 aerations, alternative backstops, biological indicators) 5/5; (Recipe 12: 20 Torr, NO2 5 mg/L, 80% RH, dwell 10 min, 2 pulses, 24 aerations, alternative backstops, biological indicators) 5/5. The “Spiked Backstop … (6 logs reduction)” value is 5/5 (Recipe 13: 20 Torr, NO2 5 mg/L, 80% RH, dwell 5 min, 2 pulses, 24 aerations, alternative backstops, biological indicators) and 5/5 (Recipe 15: 500 Torr, NO2 5 mg/L, 80% RH, dwell 5 min, 2 pulses, 70 aerations, alternative backstops, biological indicators).
